Measured values: patent publication US20210030726A1 (MOUNT TAM THERAPEUTICS, INC., priority 2018, published 2021)
Where “and” joins values, the source holds several entries; their conditions need not be identical. Equal entries are not always repeated. Where two headings read alike, the source gives them in different places.

Assays:
Type in all cases: in vivo
[1] = test system: 6-OHDA injected mice; experiment: Anti-TH immunohistochemistry, 6-OHDA-induced TH+ neuronal loss in SN; settings: 10 mg/kg
Description: (§1) Immunohistochemistry analysis using anti-tyrosine hydroxylase (TH) antibody was also performed to quantify 6-OHDA-induced neuronal loss in mice injected with 6-OHDA and non-injected (control) sides of the brain. […] FIG. 4B presents the mean and standard error of the mean (SEM) as well as statistical analysis of the results. […] This staining data was confirmed by staining for TH protein expression in the 6-OHDA-treated striatum.

[2] = test system: 6-OHDA injected mice; experiment: 6-OHDA cylinder test (motor performance); settings: 10 mg/kg, three days pre-treatment before 6-OHDA (80 μg); seven day test
Description: The data presented in FIG. 2B as mean and standard error of the mean (SEM), for a seven day test. Statistical analyses as compared to baseline mice were performed using the one-way Anova test (*: p<0.05). […] Data is presented as mean and SEM. Statistical analyses were performed using one-way Anova test (*: p<0.05; ***: p<0.001. n.s.: not significant.)

[3] = Whole blood concentrations after IP administration to mice (LC-MS/MS); settings: for concentration at 1 h: Day 3, 1.00 hrs; for concentration at 24 h: Day 3, 24.0 hrs
Description: These determinations were made using protein precipitation, liquid chromatography (LC), and mass spectrometry (MS/MS). Ten μl aliquots of whole blood and matrix calibration standards were distributed in a 96-well plate; 10 μl aliquots of blank matrix for matrix blanks and control blanks were included as controls. Ten μl of water was added to each sample followed by vortexing. […] This was followed by a five-minute vortex at >3500 rpm. One hundred fifty μl of the resultant supernatant was then transferred to a new 96-well plate and the samples blown to dryness at 35° C. […]

[4] = test system: 6-OHDA injected mice; experiment: Anti-TH immunohistochemistry, 6-OHDA-induced striatal denervation; settings: 10 mg/kg
Description: Immunohistochemistry analysis using anti-tyrosine hydroxylase (TH) antibody was performed in mouse midbrain sections to quantify 6-OHDA-induced striatal denervation in mice injected with 6-OHDA and non-injected (control) sides of the brain. […] In contrast, both the 6-OHDA/rapamycin-treated and the 6-OHDA/Formula I-treated sides of the brain show increased staining with the anti-TH antibody, as indicated by the dark shading in those figures. FIG. 3B presents the mean and standard error of the mean (SEM) of the integrated density of anti-TH antibody staining in the striatum, as well as statistical analysis of the results for the groups of mice.

[5] = test system: 6-OHDA injected mice; experiment: TH protein expression in 6-OHDA-treated striatum; settings: 3 mg/kg, two-day pre-treatment
Description: as §1

[6] = Brain concentrations after IP administration to mice (LC-MS/MS of brain homogenates); settings: for Concentration in Mouse Brain, individual animals / concentration at 24 h: Day 3, 24.0 hrs; for Concentration in Mouse Brain, individual animals: Animal ID 1-3; for concentration at 24 h: mouse, brain, ip
Description: To carry out these assays using brain homogenates, 20 uL of samples and matrix calibration standards into wells of a 96-well plate, and 10 uL of blank matrix allocated for matrix blanks and control blanks. 160 uL internal standard was then added to all samples except matrix blanks, and 160 uL ACN added to matrix blanks. Samples were then vortexed for 5 minutes and centrifuge for 5 minutes at >3500 rpm. 150 uL of the supernatant was then transferred to a new 96-well plate, and the plates blown down to dryness at 35° C., reconstituted with 90 uL of 70:30 water:acetonitrile (ACN) solution, covered and vortexed prior to analysis. LC and MS conditions were the same as described above for the whole blood analysis.

[7] = 2 mg/kg or 10 mg/kg IP QD for three days
[8] = mouse, whole blood, intraperitoneal, 10 mg/kg, 10 mg/kg IP QD x 3 days, Animal ID 4-6, read-out: Concentration in Mouse Whole Blood, individual animals
[9] = mouse, whole blood, intraperitoneal, 10 mg/kg, 10 mg/kg IP QD x 3 days, read-out: Concentration in Mouse Whole Blood, Mean

concentration at 1 h [3, 8]: 2890 ng/mL
concentration at 1 h [3, 9]: 3200 ng/mL
concentration at 2 h ([3]; mouse, whole blood, intraperitoneal, 10 mg/kg, 10 mg/kg IP QD x 3 days, Day 3, 2.00 hrs): 1900 ng/mL
concentration at 6 h ([3]; mouse, whole blood, intraperitoneal, 10 mg/kg, 10 mg/kg IP QD x 3 days, Day 3, 6.00 hrs): 1380 ng/mL
concentration at 24 h [3, 8]: 292 ng/mL
concentration at 24 h [3, 9]: 372 ng/mL
Concentration in Mouse Brain, individual animals ([6]; Group 1 (2 mg/kg) IP QD x 3 days, 2 mg/kg): 31.1 ng/g and 39.2 ng/g and 68.1 ng/g
Concentration in Mouse Brain, individual animals ([6]; Group 2 (10 mg/kg) IP QD x 3 days, 10 mg/kg): 140 ng/g (2×) and 299 ng/g
concentration at 24 h ([6]; 2 mg/kg, Group 1 (2 mg/kg) IP QD x 3 days): 46.1 ng/g
concentration at 24 h ([6]; 10 mg/kg, Group 2 (10 mg/kg) IP QD x 3 days): 193 ng/g
SMILES: CO[C@H]1C[C@@H]2CC[C@@H](C)[C@@](O)(O2)C(=O)C(=O)N2CCCC[C@H]2C(=O)O[C@H]([C@H](C)C[C@@H]2C[C@@H]3C[C@H]2C[C@H]3O)CC(=O)[C@H](C)/C=C(\C)[C@@H](O)[C@@H](OC)C(=O)[C@H](C)C[C@H](C)/C=C/C=C/C=C/1C [Formula I, 37R-hydroxynorbornylrapamycin]
6-OHDA-induced neuronal loss vs vehicle control (TH-positive somas in SN, FIG. 4A) [1]: decreased 6-OHDA-induced neuronal loss as compared to vehicle control
Contralateral touches, percent total touches (FIG. 2B) [2]: outperformed rapamycin and the vehicle control by bringing the number of touches closer to that of baseline mice
Whole blood exposure (in words) [3, 7]: sufficient concentrations in whole blood over time
Concentration in Mouse Whole Blood, individual animals ([3]; 10 mg/kg IP QD x 3 days, Day 2, 1.00 hrs, Animal ID 4-6): AQL (Original value above quantitation limit (1000 ng/mL))
Concentration in Mouse Whole Blood, individual animals ([3]; 10 mg/kg IP QD x 3 days, Day 2, 6.00 hrs, Animal ID 4-6): AQL (Original value above quantitation limit (1000 ng/mL))
6-OHDA-induced striatal denervation vs rapamycin (FIG. 3A) [4]: also decreased 6-OHDA-induced denervation as compared to rapamycin
6-OHDA-induced striatal denervation vs vehicle control (TH integrated density, FIG. 3A) [4]: decreased 6-OHDA-induced denervation as compared to vehicle control
TH protein expression in 6-OHDA-treated striatum (FIGS. 4C-4F) [5]: non-statistically significant difference
Brain exposure (in words) [6, 7]: sufficient concentrations in brain over time
